The test system of assay [1] is Dengue 1 virus MY97-10245. The experiment in a line: High-content imaging cell-based flavivirus immunodetection (HCl-CFI) assay, Dengue 1. Conditions: Dengue virus, A549, 48 h, read-out: Dengue 1 virus MY97-10245 in A549 using HCl [Inhibitor/IC50] Qualified AC50.
The subject of assay [2] is Dengue 2 virus MY97-10340. The experiment in a line: High-content imaging cell-based flavivirus immunodetection (HCl-CFI) assay, Dengue 2. To be noted: Dengue virus, A549, 48 h, read-out: Dengue 2 virus MY97-10340 in A549 using HCl [Inhibitor/IC50] Qualified AC50, A549 cells, MOI 0.3, 48 h, viral E protein expression. The gist of the method:
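A549 cells infected at MOI 0.3, treated with 3-fold, 10-point compound dilutions for 48 h. After paraformaldehyde fixation, viral E protein immunostained with 4G2 antibody and nuclei counterstained; imaged by high-content imaging. EC50 = concentration reducing E protein expression by 50%, from dose-response curves.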

Assay [3] deals with Dengue 4 virus MY01-22713. Nature of the assay: High-content imaging cell-based flavivirus immunodetection (HCl-CFI) assay, Dengue 4. Conditions: Dengue virus, A549, 48 h, read-out: Dengue 4 virus MY01-22713 in A549 using HCl [Inhibitor/IC50] Qualified AC50, A549 cells, 48 h, viral E protein expression.
The test system of assay [4] is Dengue 3 virus MY05-34640-WT-C6/36. Nature of the assay: High-content imaging cell-based flavivirus immunodetection (HCl-CFI) assay, Dengue 3. Conditions: Dengue virus, A549, 48 h, read-out: Dengue 3 virus MY05-34640-WT-C6/36 in A549 using HCl [Inhibitor/IC50] Qualified AC50.

Where only a bound is given, the exact number is not on record here.

Consider `CCC1(CC)Cc2sc(NC(=O)Cc3ccc(S(N)(=O)=O)cc3)c(C#N)c2CN1CC1CC(F)(F)C1` [Example 79, N-(3-cyano-5-((3,3-difluorocyclobutyl)methyl)-6,6-diethyl-4,5,6,7-tetrahydrothieno[3,2-c]pyridin-2-yl)-2-(4-sulfamoylphenyl)acetamide], for which the EC50 in assay [1], in assay [2], in assay [3] and in assay [4] was < 100 nM in each case.

In the case of `CN(C(=O)Cc1ccc(S(N)(=O)=O)cc1)c1sc2c(c1C#N)CN(CC1CCCCC1)C(C)(C)C2` [Example 75, N-(3-cyano-5-(cyclohexylmethyl)-6,6-dimethyl-4,5,6,7-tetrahydrothieno[3,2-c]pyridin-2-yl)-N-methyl-2-(4-sulfamoylphenyl)acetamide], the EC50 in assay [1], in assay [2], in assay [3] and in assay [4] was > 1000 nM in each case.

Take `Cc1ccc(CN2CCc3c(sc(NC(=O)Cc4ccc(S(N)(=O)=O)cc4)c3C#N)C2)cc1` [Example 98, N-(3-cyano-6-(4-methylbenzyl)-4,5,6,7-tetrahydrothieno[2,3-c]pyridin-2-yl)-2-(4-sulfamoylphenyl)acetamide]: the EC50 in assay [1] is > 1000 nM; in assay [2], 100 to 1000 nM; in assay [3], 100 to 1000 nM; in assay [4] it was 100 to 1000 nM.

In the case of `CS(=O)(=O)c1ccc(CC(=O)Nc2sc3c(c2C#N)CCN(Cc2cccc(F)c2)C3)cc1` [Example 119, N-(3-cyano-6-(3-fluorobenzyl)-4,5,6,7-tetrahydrothieno[2,3-c]pyridin-2-yl)-2-(4-(methylsulfonyl)phenyl)acetamide], the EC50 in assay [1] is > 1000 nM; in assay [2], 100 to 1000 nM; in assay [3] it was < 100 nM; in assay [4] it was < 100 nM.

For the compound `CC1(C)CS(=O)(=O)c2ccc(CC(=O)Nc3sc4c(c3C#N)CN(Cc3cccc(F)c3)C(C)(C)C4)cc21` [Example 80, N-(3-cyano-5-(3-fluorobenzyl)-6,6-dimethyl-4,5,6,7-tetrahydrothieno[3,2-c]pyridin-2-yl)-2-(3,3-dimethyl-1,1-dioxido-2,3-dihydrobenzo[b]thiophen-5-yl)acetamide], the EC50 in assay [1] was 100 to 1000 nM; in assay [2], < 100 nM; in assay [3], < 100 nM; in assay [4], < 100 nM.

Turning to `CS(=O)(=O)c1ccc(CC(=O)Nc2sc3c(c2C#N)CN(Cc2cccc(F)c2)CC3)cc1C#N` [Example 27, 2-(3-cyano-4-(methylsulfonyl)phenyl)-N-(3-cyano-5-(3-fluorobenzyl)-4,5,6,7-tetrahydrothieno[3,2-c]pyridin-2-yl)acetamide], the EC50 in assay [1] was 100 to 1000 nM; in assay [2] it was < 100 nM; in assay [3], < 100 nM; in assay [4], < 100 nM.

In the case of `N#Cc1c(NC(=O)Cc2ccc(S(N)(=O)=O)cc2)sc2c1CCN(Cc1cccc(F)c1F)C2` [Example 106, N-(3-cyano-6-(2,3-difluorobenzyl)-4,5,6,7-tetrahydrothieno[2,3-c]pyridin-2-yl)-2-(4-sulfamoylphenyl)acetamide], the EC50 in assay [1] is 100 to 1000 nM; in assay [2], < 100 nM; in assay [3], < 100 nM; in assay [4], < 100 nM.

For the compound `CCOc1cc(CC(=O)Nc2sc3c(c2C#N)CN(Cc2cccc(F)c2)CC3)ccc1S(C)(=O)=O` [Example 37, N-(3-cyano-5-(3-fluorobenzyl)-4,5,6,7-tetrahydrothieno[3,2-c]pyridin-2-yl)-2-(3-ethoxy-4-(methylsulfonyl)phenyl)acetamide], the EC50 in assay [1] was 100 to 1000 nM; in assay [2] it was < 100 nM; in assay [3] it was < 100 nM; in assay [4], < 100 nM.

For the compound `CNS(=O)(=O)c1ccccc1CC(=O)Nc1sc2c(c1C#N)CN(Cc1cccc(F)c1)CC2` [Example 28, N-(3-cyano-5-(3-fluorobenzyl)-4,5,6,7-tetrahydrothieno[3,2-c]pyridin-2-yl)-2-(2-(N-methylsulfamoyl)phenyl)acetamide], the EC50 was 100 to 1000 nM in assay [1], 100 to 1000 nM in assay [2], < 100 nM in assay [3] and < 100 nM in assay [4].

`CCOc1cc(CC(=O)Nc2sc3c(c2C#N)CN(Cc2cccc(F)c2)CC3)ccc1C(N)=O` [Example 89, 4-(2-((3-cyano-5-(3-fluorobenzyl)-4,5,6,7-tetrahydrothieno[3,2-c]pyridin-2-yl)amino)-2-oxoethyl)-2-ethoxybenzamide]: the EC50 in assay [1], in assay [2], in assay [3] and in assay [4] was 100 to 1000 nM each time.

Regarding `CC1(C)Cc2sc(NC(=O)Cc3ccc(S(N)(=O)=O)cc3)c(C#N)c2CN1Cc1cccc(F)c1` [Example 81, N-(3-cyano-5-(3-fluorobenzyl)-6,6-dimethyl-4,5,6,7-tetrahydrothieno[3,2-c]pyridin-2-yl)-2-(4-sulfamoylphenyl)acetamide], the EC50 in assay [1] was 100 to 1000 nM; in assay [2], < 100 nM; in assay [3] it was < 100 nM; in assay [4], < 100 nM.

With `N#Cc1c(NC(=O)Cc2ccc(S(N)(=O)=O)cc2)sc2c1CCN(Cc1c(F)cccc1F)C2` [Example 116, N-(3-cyano-6-(2,6-difluorobenzyl)-4,5,6,7-tetrahydrothieno[2,3-c]pyridin-2-yl)-2-(4-sulfamoylphenyl)acetamide], the EC50 in assay [1] is 100 to 1000 nM; in assay [2], < 100 nM; in assay [3] it was < 100 nM; in assay [4] it was < 100 nM.

Regarding `CC1(C)Cc2sc(NC(=O)Cc3ccc4c(c3)C(CN)CS4(=O)=O)c(C#N)c2CN1CC1CCCCC1` (centres unmarked) [Example 74, 2-(3-(aminomethyl)-1,1-dioxido-2,3-dihydrobenzo[b]thiophen-5-yl)-N-(3-cyano-5-(cyclohexylmethyl)-6,6-dimethyl-4,5,6,7-tetrahydrothieno[3,2-c]pyridin-2-yl)acetamide], the EC50 in assay [1], in assay [2], in assay [3] and in assay [4] was 100 to 1000 nM throughout.

On to `COc1cc(S(N)(=O)=O)ccc1CC(=O)Nc1sc2c(c1C#N)CN(CC1CCCCC1)CC2` [Example 19, N-(3-cyano-5-(cyclohexylmethyl)-4,5,6,7-tetrahydrothieno[3,2-c]pyridin-2-yl)-2-(2-methoxy-4-sulfamoylphenyl)acetamide], for which the EC50 in assay [1], in assay [2], in assay [3] and in assay [4] was < 100 nM throughout.

`COc1cc(S(N)(=O)=O)ccc1CC(=O)Nc1sc2c(c1C#N)CN(Cc1cccc(F)c1)CC2` [Example 24, N-(3-cyano-5-(3-fluorobenzyl)-4,5,6,7-tetrahydrothieno[3,2-c]pyridin-2-yl)-2-(2-methoxy-4-sulfamoylphenyl)acetamide]: the EC50 in assay [1] was 100 to 1000 nM; in assay [2], 100 to 1000 nM; in assay [3], 100 to 1000 nM; in assay [4] it was < 100 nM.

On to `N#Cc1c(NC(=O)Cc2ccc(S(N)(=O)=O)cc2)sc2c1CN(CC1CCCCC1)CC2` [Example 6, N-(3-cyano-5-(cyclohexylmethyl)-4,5,6,7-tetrahydrothieno[3,2-c]pyridin-2-yl)-2-(4-sulfamoylphenyl)acetamide], for which the EC50 is 100 to 1000 nM in assay [1], < 100 nM in assay [2], < 100 nM in assay [3] and < 100 nM in assay [4].

Take `N#Cc1c(NC(=O)Cc2ccc3c(c2)CCS3(=O)=O)sc2c1CN(CC1CCCCC1)CC2` [Example 18, N-(3-cyano-5-(cyclohexylmethyl)-4,5,6,7-tetrahydrothieno[3,2-c]pyridin-2-yl)-2-(1,1-dioxido-2,3-dihydrobenzo[b]thiophen-5-yl)acetamide]: the EC50 in assay [1], in assay [2], in assay [3] and in assay [4] was < 100 nM throughout.

For the compound `CN(C)S(=O)(=O)c1ccc(CC(=O)Nc2sc3c(c2C#N)CN(CC2CCCCC2)CC3)cc1` [Example 14, N-(3-cyano-5-(cyclohexylmethyl)-4,5,6,7-tetrahydrothieno[3,2-c]pyridin-2-yl)-2-(4-(N,N-dimethylsulfamoyl)phenyl)acetamide], the EC50 in assay [1], in assay [2], in assay [3] and in assay [4] was 100 to 1000 nM each time.

`Cc1ccccc1CN1CCc2c(sc(NC(=O)Cc3ccc(S(N)(=O)=O)cc3)c2C#N)C1` [Example 97, N-(3-cyano-6-(2-methylbenzyl)-4,5,6,7-tetrahydrothieno[2,3-c]pyridin-2-yl)-2-(4-sulfamoylphenyl)acetamide]: the EC50 in assay [1], in assay [2], in assay [3] and in assay [4] was 100 to 1000 nM throughout.

In the case of `Cc1cc(C)cc(CN2CCc3c(sc(NC(=O)Cc4ccc(S(N)(=O)=O)cc4)c3C#N)C2)c1` [Example 110, N-(3-cyano-6-(3,5-dimethylbenzyl)-4,5,6,7-tetrahydrothieno[2,3-c]pyridin-2-yl)-2-(4-sulfamoylphenyl)acetamide], the EC50 is 100 to 1000 nM in assay [1], < 100 nM in assay [2], < 100 nM in assay [3] and < 100 nM in assay [4].

(Values after patent publication US12012417B2, “N-substituted tetrahydrothienopyridine derivatives and uses thereof” (NOVARTIS AG, priority 2018, dated 2024).)
